Test results reported in PMC10671849, “Synthesis and Evaluation of Marine-Inspired Compounds Result in Hybrids with Antitrypanosomal and Antileishmanial Activities” (Marine Drugs, 2023).
Where two headings read alike, the source gives them in different places.

Legend:
[1] = Cytotoxicity MTT assay on PMA-differentiated THP-1 macrophages; assay type: cell-based; conditions: human
Description: A human leukemia cell line, THP-1 (ATCC® TIB-202™), was cultured in RPMI-1640 medium supplemented with 10% heat-inactivated fetal bovine serum (FBS), 2 mM L-glutamine, 100 IU/mL penicillin/streptomycin, and 20 mM HEPES. The cell line was maintained in a humidified incubator at 37 °C and 5% CO2 by subculture every 3 days in 20 mL of media at a concentration of 2 × 10^5/mL in a T75 flask. All cell culture reagents were purchased from Lonza-Bioscience (Morrisville, NC, USA).
The cytotoxicity effect of compounds on THP-1-derived macrophages was assessed by colorimetric MTT assay (3-(4,5-dimethylthiazol-2-yl)-2,5-diphenyl tetrazolium bromide). Briefly, THP-1 cells were suspended in RPMI complete medium at a density of 1 × 10^6 cells/mL and 100 μL/well and were seeded in a 96-well plate and differentiated into macrophages by addition of 40 ng/mL of phorbol-myristate 13-acetate (PMA, Sigma, Saint Louis, MI, USA) for 24 h, followed by replacement with fresh medium for 24 more h. Subsequently, the cells were incubated with 100 μL of compounds ranging from 100 to 12.5 μM after dilution in the RPMI complete medium. Each condition was carried out in quadruplicate. After 72 h of incubation at 37 °C and 5% CO2, the medium was removed, and 200 μL of 0.5 mg/mL MTT solution diluted in RPMI was added. The plates were incubated for an additional 4 h. Then, 160 μL of media was removed, and the same volume of 2-propanol was added. Absorbance was read at 570 nm using a Synergy 2 Multi-Mode Reader (Biotek, Winooski, VT, USA). Cytotoxicity was evaluated by the determination of the CC50 value (drug concentration that reduced the percentage of viable cells by 50%) and calculated by non-linear regression analysis using GraphPad Prism software, version 8.1.1 for Windows (GraphPad Software, San Diego, CA, USA). The results represent the average of at least three independent experiments. For each compound, the selectivity index (SI) was calculated as the ratio between cytotoxicity in THP-1 (CC50, 72 h) and activity against parasites (IC50, 72 h).

[2] = tested on: L. infantum promastigotes; test: Anti-Leishmania activity, resazurin-based assay; assay type: cell-based; conditions: 72 h incubation, resazurin, highest concentration tested 40 µM, 95% CI in parentheses, read-out: Anti-Parasitic Activity IC50 (µM) 95% CI, L. infantum Promastigotes
Description: Promastigotes from the L. infantum strain (MHOM/MA/67/ITMAP-263) were grown in 5-mL T25 flasks in Schneider’s insect medium supplemented with 10% heat-inactivated fetal bovine serum (FBS), 200 U/mL penicillin/streptomycin, 6 µg/mL Phenol Red, and 5 mM HEPES. The cultures were maintained in an incubator at 27 °C and diluted to 2 × 10^5/mL every 5 days. For the assays, the parasites used were equivalent to late/log with 2 or 3 days of culture.
The compounds’ efficacy against L. infantum promastigotes was evaluated using a resazurin-based assay. Parasites were added to 100 µL of serial dilutions of compounds in supplemented complete medium at a cell density of 5 × 10^5/mL. As a quality control, a dose–response curve to the antileishmanial drug miltefosine was included in all the assays. The final volume of the assay was 200 µL/well. Each condition was carried out in duplicate. Following 72 h of incubation at the specific conditions for parasites, 20 µL of a 0.5 mM resazurin solution was added, and the plates were incubated for a further 4 h under the same conditions. Fluorescence was measured at 544 nm and 590 nm excitation and emission wavelengths, respectively, using a Synergy 2 Multi-Mode Reader (Biotek, Winooski, VT, USA). Results are shown as % of parasite growth inhibition compared to control (untreated parasites) and represent the average of at least three independent experiments. The effect was evaluated by the determination of the IC50 value (concentration required to inhibit growth in 50%) and was calculated by non-linear regression curves using GraphPad Prism software, version 8.1.1 for Windows (GraphPad Software, San Diego, CA, USA).

[3] = tested on: T. brucei Lister 427 bloodstream forms; test: Anti-T. brucei activity, resazurin-based assay on bloodstream forms; assay type: cell-based, Trypanosoma brucei; conditions: Trypanosoma brucei; bloodstream forms, 72 h incubation, resazurin; read-out: Anti-Parasitic Activity IC50 (µM) 95% CI, T. brucei
Description: T. brucei Lister 427 bloodstream forms were grown in a humidified incubator at 37 °C and 5% CO2 in complete HMI-9 medium supplemented with 10% heat-inactivated fetal bovine serum (FBS) and 100 UI/mL penicillin/streptomycin. Parasite maintenance was performed in T25 ventilated flasks by subpassage at a concentration of 1 × 10^4/mL every 2 days in T25 ventilated flasks. Luciferase-expressing L. infantum (MHOM/MA/67/ITMAP-263) axenic amastigotes expressing episomal luciferase were maintained in MAA20 [31] at 37 °C in a 5% CO2 environment with subculture every 7 days at 1 × 10^6/mL in 5-mL T25 ventilated flasks.
The compounds’ efficacy against bloodstream-stage trypomastigotes was evaluated using a resazurin-based assay. Parasites were added to 100 µL of serial dilutions of compounds in supplemented complete medium at a cell density of 5 × 10^3/mL. As a quality control, a dose–response curve for the antitrypanosomal pentamidine was included in all the assays. The final volume of the assay was 200 µL/well. Each condition was carried out in duplicate. Following 72 h of incubation at the specific conditions for parasites, 20 […] of a 0.5 mM resazurin solution was added, and the plates were incubated for a further 4 h under the same conditions. Fluorescence was measured at 544 nm and 590 nm excitation and emission wavelength, respectively, using a Synergy 2 Multi-Mode Reader (Biotek, Winooski, VT, USA). The results are shown as % of parasite growth inhibition compared to control (untreated parasites) and represent the average of at least three independent experiments. The effect was evaluated by the determination of the IC50 value (concentration required to inhibit growth in 50%) and calculated by non-linear regression curves using GraphPad Prism software, version 8.1.1 for Windows (GraphPad Software, San Diego, CA, USA).

SMILES | CC50 at 72 h ([1]; PMA-differentiated THP-1 macrophages, 72 h, MTT, 100 to 12.5 µM tested, read-out: Cytotoxicity CC50 (µM) 95% CI, THP-1) | IC50 [2] | CC50 at 72 h [1] | IC50 [3]
CCCCCCCCCCCCCCCCOP(=O)([O-])OCC[N+](C)(C)C [Miltefosine, miltefosine, reference compound] | 29.4 µM | 11 µM | – | –
N=C(N)c1ccc(OCCCCCOc2ccc(C(=N)N)cc2)cc1 [Pentamidine, pentamidine, reference compound] | – | – | 37.7 µM | 0.0056 µM
